# Experiments:
# Test in all cases: relative viability (nuclei count vs DMSO), 5 days (fraction); higher = more cells survive
# NCI-H358 = system: NCI-H358
# Outline: (§1)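 Lung cancer cell lines were pin-tool dosed in 1536-well plates on the day after seeding, with either a lone drug or a fixed anchor-drug dose plus five library-drug doses (not always all listed) in √10 steps. Nuclei were counted on 4× images after 5 days. Relative viability is the ratio of treated-well to vehicle-well nuclei counts, with each value a median of duplicate plates.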
# NCI-H1915 = system: NCI-H1915
# Outline: as §1
# PC-3 [JPC-3] = system: PC-3 [JPC-3]
# Outline: as §1
# LOU-NH91 = system: LOU-NH91
# Outline: as §1
# NCI-H2126 = system: NCI-H2126
# Outline: as §1
# NCI-H460 = system: NCI-H460
# Outline: as §1
# NCI-H522 = system: NCI-H522
# Outline: as §1
# NCI-H2347 = system: NCI-H2347
# Outline: as §1
# NCI-H647 = system: NCI-H647
# Outline: as §1
# HOP-62 = system: HOP-62
# Outline: as §1
# RERF-LC-KJ = system: RERF-LC-KJ
# Outline: as §1
# NCI-H2342 = system: NCI-H2342
# Outline: as §1
# NCI-H1755 = system: NCI-H1755
# Outline: as §1
# HCC-15 = system: HCC-15
# Outline: as §1
# A-427 = system: A-427
# Outline: as §1
# NCI-H1734 = system: NCI-H1734
# Outline: as §1
# LXF-289 = system: LXF-289
# Outline: as §1
# LC-2-ad = system: LC-2-ad
# Outline: as §1
# SW 1573 = system: SW 1573
# Outline: as §1
# SK-LU-1 = system: SK-LU-1
# Outline: as §1
# NCI-H1792 = system: NCI-H1792
# Outline: as §1
# NCI-H1975 = system: NCI-H1975
# Outline: as §1
# HCC-78 = system: HCC-78
# Outline: as §1
structure (smiles),measurement,setting,value
C[C@@H]1CN(CC(=O)Nc2ccc3c(c2)Cc2cccc(-c4cc(=O)cc(N5CCOCC5)o4)c2S3)C[C@H](C)O1 + Nc1ncn([C@H]2C[C@H](O)[C@@H](CO)O2)c(=O)n1 [Decitabine] (partner 2 µM),relative viability,NCI-H358; first compound 0.04 µM,0.181
same,relative viability,NCI-H358; first compound 0.1265 µM,0.204
same,relative viability,NCI-H358; first compound 0.4 µM,0.172
same,relative viability,NCI-H358; first compound 4 µM,0.14
same,relative viability,NCI-H1915; first compound 0.04 µM,0.259
same,relative viability,NCI-H1915; first compound 0.1265 µM,0.279
same,relative viability,NCI-H1915; first compound 0.4 µM,0.283
same,relative viability,NCI-H1915; first compound 4 µM,0.29
same,relative viability,PC-3 [JPC-3]; first compound 0.04 µM,0.789
same,relative viability,PC-3 [JPC-3]; first compound 0.1265 µM,0.841
same,relative viability,PC-3 [JPC-3]; first compound 0.4 µM,0.854
same,relative viability,PC-3 [JPC-3]; first compound 4 µM,0.781
same,relative viability,LOU-NH91; first compound 0.04 µM,0.857
same,relative viability,LOU-NH91; first compound 0.1265 µM,0.819
same,relative viability,LOU-NH91; first compound 0.4 µM,0.81
same,relative viability,LOU-NH91; first compound 4 µM,0.749
same,relative viability,NCI-H2126; first compound 0.04 µM,0.543
same,relative viability,NCI-H2126; first compound 0.1265 µM,0.567
same,relative viability,NCI-H2126; first compound 0.4 µM,0.623
same,relative viability,NCI-H2126; first compound 4 µM,0.593
same,relative viability,NCI-H460; first compound 0.04 µM,0.401
same,relative viability,NCI-H460; first compound 0.1265 µM,0.466
same,relative viability,NCI-H460; first compound 0.4 µM,0.379
same,relative viability,NCI-H460; first compound 4 µM,0.335
same,relative viability,NCI-H522; first compound 0.04 µM,0.663
same,relative viability,NCI-H522; first compound 0.1265 µM,0.689
same,relative viability,NCI-H522; first compound 0.4 µM,0.641
same,relative viability,NCI-H522; first compound 4 µM,0.724
same,relative viability,NCI-H2347; first compound 0.04 µM,0.581
same,relative viability,NCI-H2347; first compound 0.1265 µM,0.624
same,relative viability,NCI-H2347; first compound 0.4 µM,0.693
same,relative viability,NCI-H2347; first compound 4 µM,0.637
same,relative viability,NCI-H647; first compound 0.04 µM,0.442
same,relative viability,NCI-H647; first compound 0.1265 µM,0.376
same,relative viability,NCI-H647; first compound 0.4 µM,0.369
same,relative viability,NCI-H647; first compound 4 µM,0.346
same,relative viability,HOP-62; first compound 0.04 µM,0.229
same,relative viability,HOP-62; first compound 0.1265 µM,0.202
same,relative viability,HOP-62; first compound 0.4 µM,0.187
same,relative viability,HOP-62; first compound 4 µM,0.245
same,relative viability,RERF-LC-KJ; first compound 0.04 µM,0.711
same,relative viability,RERF-LC-KJ; first compound 0.1265 µM,0.61
same,relative viability,RERF-LC-KJ; first compound 0.4 µM,0.678
same,relative viability,RERF-LC-KJ; first compound 4 µM,0.556
same,relative viability,NCI-H2342; first compound 0.04 µM,0.76
same,relative viability,NCI-H2342; first compound 0.1265 µM,0.779
same,relative viability,NCI-H2342; first compound 0.4 µM,0.71
same,relative viability,NCI-H2342; first compound 4 µM,0.704
same,relative viability,NCI-H1755; first compound 0.04 µM,0.708
same,relative viability,NCI-H1755; first compound 0.1265 µM,0.737
same,relative viability,NCI-H1755; first compound 0.4 µM,0.77
same,relative viability,NCI-H1755; first compound 4 µM,0.796
same,relative viability,HCC-15; first compound 0.04 µM,0.621
same,relative viability,HCC-15; first compound 0.1265 µM,0.594
same,relative viability,HCC-15; first compound 0.4 µM,0.558
same,relative viability,HCC-15; first compound 4 µM,0.59
same,relative viability,A-427; first compound 0.04 µM,0.533
same,relative viability,A-427; first compound 0.1265 µM,0.605
same,relative viability,A-427; first compound 0.4 µM,0.562
same,relative viability,A-427; first compound 4 µM,0.587
same,relative viability,NCI-H1734; first compound 0.04 µM,0.567
same,relative viability,NCI-H1734; first compound 0.1265 µM,0.507
same,relative viability,NCI-H1734; first compound 0.4 µM,0.474
same,relative viability,NCI-H1734; first compound 4 µM,0.574
same,relative viability,LXF-289; first compound 0.04 µM,0.374
same,relative viability,LXF-289; first compound 0.1265 µM,0.354
same,relative viability,LXF-289; first compound 0.4 µM,0.419
same,relative viability,LXF-289; first compound 4 µM,0.419
same,relative viability,LC-2-ad; first compound 0.04 µM,0.939
same,relative viability,LC-2-ad; first compound 0.1265 µM,0.786
same,relative viability,LC-2-ad; first compound 0.4 µM,0.792
same,relative viability,LC-2-ad; first compound 4 µM,0.628
same,relative viability,SW 1573; first compound 0.04 µM,0.572
same,relative viability,SW 1573; first compound 0.1265 µM,0.56
same,relative viability,SW 1573; first compound 0.4 µM,0.483
same,relative viability,SW 1573; first compound 4 µM,0.615
same,relative viability,SK-LU-1; first compound 0.04 µM,0.693
same,relative viability,SK-LU-1; first compound 0.1265 µM,0.719
same,relative viability,SK-LU-1; first compound 0.4 µM,0.646
same,relative viability,SK-LU-1; first compound 4 µM,0.59
same,relative viability,NCI-H1792; first compound 0.04 µM,0.627
same,relative viability,NCI-H1792; first compound 0.1265 µM,0.51
same,relative viability,NCI-H1792; first compound 0.4 µM,0.542
same,relative viability,NCI-H1792; first compound 4 µM,0.441
same,relative viability,NCI-H1975; first compound 0.04 µM,0.412
same,relative viability,NCI-H1975; first compound 0.1265 µM,0.44
same,relative viability,NCI-H1975; first compound 0.4 µM,0.364
same,relative viability,NCI-H1975; first compound 4 µM,0.347
same,relative viability,HCC-78; first compound 0.04 µM,0.65
same,relative viability,HCC-78; first compound 0.1265 µM,0.676
same,relative viability,HCC-78; first compound 0.4 µM,0.688
same,relative viability,HCC-78; first compound 4 µM,0.732

# Source: the supplement of paper PMC10307832
